16 compounds from US10736932B2, “Small molecule Ras inhibitors” (Ohio State Innovation Foundation, priority 2014, dated 2020) can be followed below.

Square brackets hold non-standard residues; d marks the D form. Side chains are listed from the residue outwards. Peptide text beside a SMILES is read from it. * marks the point of attachment. Phe(3,4-F2) = N[C@@H](Cc1ccc(F)c(F)c1)C(=O)O; Phe(4-F) = N[C@@H](Cc1ccc(F)cc1)C(=O)O; d2Nal = N[C@H](Cc1ccc2ccccc2c1)C(=O)O; Tle = CC(C)(C)[C@H](N)C(=O)O; X5 = O=C(c1cc(F)cc(Br)c1)*; dNle = CCCC[C@@H](N)C(=O)O; X3 = N#Cc1ccc(C(=O)*)cc1; Dap = NC[C@H](N)C(=O)O

For the assay, the target named is T1, K-Ras / Raf RBD interaction (Homo sapiens, UniProt P01116, G12V).
T1 construct: The G12V mutant K-Ras (amino acids 1-185) was recombinantly fused; GST (N, cleaved yes); made in house; host or cells: Escherichia coli BL21
As to the kind of experiment: HTRF assay, inhibition of Ras-Raf RBD interaction.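 As to all read-outs here: HTRF signal read after overnight incubation of the assay plate at 4 °C.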 The format is binding. To be noted: for increase in Ras binding affinity upon residue substitution: relative to parent 9A5/9A6. A general note: In TR-FRET formats the signal depends on donor and acceptor labels being close together.

For the compound `C[C@H]1NC(=O)[C@H](Cc2ccc(F)cc2)NC(=O)[C@H](CCCNC(=N)N)NC(=O)[C@@H](Cc2ccc3ccccc3c2)NC(=O)[C@H](CCCNC(=N)N)NC(=O)[C@H](CCCNC(=N)N)NC(=O)[C@H](CCC(=O)N[C@@H](CCCCN)C(N)=O)NC(=O)[C@@H](C)NC(=O)[C@H]([C@@H](C)O)NC(=O)[C@H](Cc2c[nH]c3ccccc23)NC(=O)[C@@H](CO)NC1=O` [Cyclorasin 9A(nle6dA), (Arg-Arg-nal-Arg-Fpa-ala-ser-Trp-Thr-ala-Gln)-Lys] (cyclo(RR[d2Nal]R[Phe(4-F)][dA][dS]WT[dA]E([Lys-NH2]))), the IC50 came out at 7700 ± 5600 nM. Still for that read-out and setting: the figure for `CCCC[C@H]1NC(=O)[C@H](Cc2ccc(F)cc2)NC(=O)[C@H](CCCNC(=N)N)NC(=O)[C@@H](Cc2ccc3ccccc3c2)NC(=O)[C@H](CCCNC(=N)N)NC(=O)[C@H](CCCNC(=N)N)NC(=O)[C@H](CCCNC(=N)N)NC(=O)[C@@H](C(C)C)NC(=O)[C@H]([C@@H](C)O)NC(=O)[C@H](Cc2c[nH]c3ccccc23)NC(=O)[C@H](CCC(N)=O)NC1=O` [Cyclorasin 9A47, (Trp-Thr-val-Arg-Arg-Arg-nal-Arg-Fpa-nle-Gln)] (cyclo(WT[dV]RRR[d2Nal]R[Phe(4-F)][dNle]Q)) is 86 ± 11 nM; for `CCCC[C@H]1NC(=O)[C@H](Cc2ccc(F)cc2)NC(=O)[C@H](CCCNC(=N)N)NC(=O)[C@@H](Cc2ccc3ccccc3c2)NC(=O)[C@H](CCCNC(=N)N)NC(=O)[C@H](CCCNC(=N)N)NC(=O)[C@H](CCCNC(=N)N)NC(=O)[C@@H](CC(C)C)NC(=O)[C@H](C(C)(C)C)NC(=O)[C@H](Cc2c[nH]c3ccccc23)NC(=O)[C@H](CCC(N)=O)NC1=O` [Cyclorasin 9A41, (Trp-Tle-leu-Arg-Arg-Arg-nal-Arg-Fpa-nle-Gln)] (cyclo(W[Tle][dL]RRR[d2Nal]R[Phe(4-F)][dNle]Q)) it is 2000 ± 900 nM. In turn, `CCCC[C@H]1NC(=O)[C@H](Cc2ccc(F)cc2)NC(=O)[C@H](CCCNC(=N)N)NC(=O)[C@@H](Cc2ccc3ccccc3c2)NC(=O)[C@H](CCCNC(=N)N)NC(=O)[C@H](CCCNC(=N)N)NC(=O)[C@@H](CCCNC(=N)N)NC(=O)[C@@H](C)NC(=O)[C@H](CO)NC(=O)[C@H](Cc2c[nH]c3ccccc23)NC(=O)[C@H](CCC(N)=O)NC1=O` [Cyclorasin 9A17, (Trp-Ser-ala-arg-Arg-Arg-nal-Arg-Fpa-nle-Gln)] (cyclo(WS[dA][dR]RR[d2Nal]R[Phe(4-F)][dNle]Q)) returned a half-inhibitory concentration (IC50) of 720 ± 310 nM. On the same count and under the same terms, the result for `CCCC[C@H]1NC(=O)[C@H](Cc2ccc(F)c(F)c2)NC(=O)[C@H](CCCNC(=N)N)NC(=O)[C@@H](Cc2ccc3ccccc3c2)NC(=O)[C@H](CCCNC(=N)N)NC(=O)[C@H](CCCNC(=N)N)NC(=O)[C@H](CCCNC(=N)N)NC(=O)[C@@H](C(C)C)NC(=O)[C@H](C(C)(C)C)NC(=O)[C@H](Cc2c[nH]c3ccccc23)NC(=O)[C@H](CCC(N)=O)NC1=O` [Cyclorasin 9A54, (Trp-Tle-val-Arg-Arg-Arg-nal-Arg-Phe(3,4-difluoro)-nle-Gln)] (cyclo(W[Tle][dV]RRR[d2Nal]R[Phe(3,4-F2)][dNle]Q)) reads 18 nM; that for `CCCC[C@H]1NC(=O)[C@H](Cc2ccc(F)cc2)NC(=O)[C@H](CCCNC(=N)N)NC(=O)[C@@H](Cc2ccc3ccccc3c2)NC(=O)[C@H](CCCNC(=N)N)NC(=O)[C@H](CCCNC(=N)N)NC(=O)[C@H](CCC(=O)N[C@@H](CCCCN)C(N)=O)NC(=O)[C@@H](C)NC(=O)[C@H]([C@@H](C)O)NC(=O)[C@H](Cc2c[nH]c3ccccc23)NC(=O)[C@@H](C)NC1=O` [Cyclorasin 9A(ser7dA), (Arg-Arg-nal-Arg-Fpa-nle-ala-Trp-Thr-ala-Gln)-Lys] (cyclo(RR[d2Nal]R[Phe(4-F)][dNle][dA]WT[dA]E([Lys-NH2]))), 770 ± 490 nM; that for `CCCC[C@H]1NC(=O)[C@H](C)NC(=O)[C@H](CCCNC(=N)N)NC(=O)[C@@H](Cc2ccc3ccccc3c2)NC(=O)[C@H](CCCNC(=N)N)NC(=O)[C@H](CCCNC(=N)N)NC(=O)[C@H](CCC(=O)N[C@@H](CCCCN)C(N)=O)NC(=O)[C@@H](C)NC(=O)[C@H]([C@@H](C)O)NC(=O)[C@H](Cc2c[nH]c3ccccc23)NC(=O)[C@@H](CO)NC1=O` [Cyclorasin 9A(Fpa5A), (Arg-Arg-nal-Arg-Ala-nle-ser-Trp-Thr-ala-Gln)-Lys] (cyclo(RR[d2Nal]RA[dNle][dS]WT[dA]E([Lys-NH2]))), over 10000 nM. Same read-out and setting: the result for `CCCC[C@H]1NC(=O)[C@H](CNC(=O)c2cc(F)cc(Br)c2)NC(=O)[C@H](CCCNC(=N)N)NC(=O)[C@@H](Cc2ccc3ccccc3c2)NC(=O)[C@H](CCCNC(=N)N)NC(=O)[C@H](CCCNC(=N)N)NC(=O)[C@H](CCCNC(=N)N)NC(=O)[C@@H](C)NC(=O)[C@H]([C@@H](C)O)NC(=O)[C@H](Cc2c[nH]c3ccccc23)NC(=O)[C@H](CCC(N)=O)NC1=O` [Cyclorasin 9A44a, (Trp-Thr-ala-Arg-Arg-Arg-nal-Arg-Dap(3-bromo-5-fluorobenzoyl)-nle-Gln)] (cyclo(WT[dA]RRR[d2Nal]R[Dap](X5)[dNle]Q)) reads 83 ± 8 nM.

Compound `CCCC[C@H]1NC(=O)[C@H](Cc2ccc(F)cc2)NC(=O)[C@H](CCCNC(=N)N)NC(=O)[C@@H](Cc2ccc3ccccc3c2)NC(=O)[C@H](CCCNC(=N)N)NC(=O)[C@H](CCCNC(=N)N)NC(=O)[C@H](CCC(=O)N[C@@H](CCCCN)C(N)=O)NC(=O)[C@@H](C)NC(=O)[C@H]([C@@H](C)O)NC(=O)[C@H](C)NC(=O)[C@@H](CO)NC1=O` [Cyclorasin 9A(Trp8A), (Arg-Arg-nal-Arg-Fpa-nle-ser-Ala-Thr-ala-Gln)-Lys] (cyclo(RR[d2Nal]R[Phe(4-F)][dNle][dS]AT[dA]E([Lys-NH2]))) displayed an IC50 of 7200 ± 1000 nM. Compound `CCCC[C@H]1NC(=O)[C@H](Cc2ccc(F)cc2)NC(=O)[C@H](C)NC(=O)[C@@H](Cc2ccc3ccccc3c2)NC(=O)[C@H](CCCNC(=N)N)NC(=O)[C@H](CCCNC(=N)N)NC(=O)[C@H](CCC(=O)N[C@@H](CCCCN)C(N)=O)NC(=O)[C@@H](C)NC(=O)[C@H]([C@@H](C)O)NC(=O)[C@H](Cc2c[nH]c3ccccc23)NC(=O)[C@@H](CO)NC1=O` [Cyclorasin 9A(Arg4A), (Arg-Arg-nal-Ala-Fpa-nle-ser-Trp-Thr-ala-Gln)-Lys] (cyclo(RR[d2Nal]A[Phe(4-F)][dNle][dS]WT[dA]E([Lys-NH2]))) returned an IC50 of 390 ± 280 nM. On the same count and under the same terms, the result for `CCCC[C@H]1NC(=O)[C@H](CNC(=O)c2ccc(C#N)cc2)NC(=O)[C@H](CCCNC(=N)N)NC(=O)[C@@H](Cc2ccc3ccccc3c2)NC(=O)[C@H](CCCNC(=N)N)NC(=O)[C@H](CCCNC(=N)N)NC(=O)[C@H](CCCNC(=N)N)NC(=O)[C@@H](C)NC(=O)[C@H](C(C)(C)C)NC(=O)[C@H](Cc2c[nH]c3ccccc23)NC(=O)[C@H](CCC(N)=O)NC1=O` [Cyclorasin 9A44c, (Trp-Tle-ala-Arg-Arg-Arg-nal-Arg-Dap(4-cyanobenzoyl)-nle-Gln)] (cyclo(W[Tle][dA]RRR[d2Nal]R[Dap](X3)[dNle]Q)) reads 150 ± 50 nM. For the compound `CCCC[C@H]1NC(=O)[C@H](Cc2ccc(F)cc2)NC(=O)[C@H](CCCNC(=N)N)NC(=O)[C@@H](Cc2ccc3ccccc3c2)NC(=O)[C@H](CCCNC(=N)N)NC(=O)[C@H](CCCNC(=N)N)NC(=O)[C@@H](CCCNC(=N)N)NC(=O)[C@@H](C(C)C)NC(=O)[C@H]([C@@H](C)O)NC(=O)[C@H](Cc2c[nH]c3ccccc23)NC(=O)[C@H](CCC(N)=O)NC1=O` [Cyclorasin 9A14, (Trp-Thr-val-arg-Arg-Arg-nal-Arg-Fpa-nle-Gln)] (cyclo(WT[dV][dR]RR[d2Nal]R[Phe(4-F)][dNle]Q)), the IC50 came out at 130 ± 70 nM and the “increase in Ras binding affinity upon residue substitution” value is given as about 2 fold. For `C[C@H]1NC(=O)[C@H]([C@@H](C)O)NC(=O)[C@H](Cc2c[nH]c3ccccc23)NC(=O)[C@H](CCC(N)=O)NC(=O)[C@@H](CCCNC(=N)N)NC(=O)[C@H](Cc2ccc(F)cc2)NC(=O)[C@H](CCCNC(=N)N)NC(=O)[C@@H](Cc2ccc3ccccc3c2)NC(=O)[C@H](CCCNC(=N)N)NC(=O)[C@H](CCCNC(=N)N)NC(=O)[C@H](CCCNC(=N)N)NC1=O` [Cyclorasin 9A45, (Trp-Thr-ala-Arg-Arg-Arg-nal-Arg-Fpa-arg-Gln)] (cyclo(WT[dA]RRR[d2Nal]R[Phe(4-F)][dR]Q)) the same measures were 36 ± 4 nM and 4 fold. In turn, `CCCC[C@H]1NC(=O)[C@H](Cc2ccc(F)cc2)NC(=O)[C@H](CCCNC(=N)N)NC(=O)[C@@H](Cc2ccc3ccccc3c2)NC(=O)[C@H](CCCNC(=N)N)NC(=O)[C@H](CCCNC(=N)N)NC(=O)[C@H](CCCNC(=N)N)NC(=O)[C@@H](C)NC(=O)[C@H](C(C)(C)C)NC(=O)[C@H](Cc2c[nH]c3ccccc23)NC(=O)[C@H](CCC(N)=O)NC1=O` [Cyclorasin 9A46, (Trp-Tle-ala-Arg-Arg-Arg-nal-Arg-Fpa-nle-Gln)] (cyclo(W[Tle][dA]RRR[d2Nal]R[Phe(4-F)][dNle]Q)) yielded an IC50 of 130 ± 20 nM. For the compound `CCCC[C@H]1NC(=O)[C@H](Cc2ccc(F)cc2)NC(=O)[C@H](CCCNC(=N)N)NC(=O)[C@@H](Cc2ccc3ccccc3c2)NC(=O)[C@H](CCCNC(=N)N)NC(=O)[C@H](CCCNC(=N)N)NC(=O)[C@H](CCCNC(=N)N)NC(=O)[C@@H](C(C)C)NC(=O)[C@H](C(C)(C)C)NC(=O)[C@H](Cc2c[nH]c3ccccc23)NC(=O)[C@H](CCC(N)=O)NC1=O` [Cyclorasin 9A48, (Trp-Tle-val-Arg-Arg-Arg-nal-Arg-Fpa-nle-Gln)] (cyclo(W[Tle][dV]RRR[d2Nal]R[Phe(4-F)][dNle]Q)), the IC50 worked out at 48 ± 3 nM. Take `CCCC[C@H]1NC(=O)[C@H](Cc2ccc(F)c(F)c2)NC(=O)[C@H](CCCNC(=N)N)NC(=O)[C@@H](Cc2ccc3ccccc3c2)NC(=O)[C@H](CCCNC(=N)N)NC(=O)[C@H](CCCNC(=N)N)NC(=O)[C@H](CCCNC(=N)N)NC(=O)[C@@H](C)NC(=O)[C@H]([C@@H](C)O)NC(=O)[C@H](Cc2c[nH]c3ccccc23)NC(=O)[C@H](CCC(N)=O)NC1=O` [Cyclorasin 9A43, (Trp-Thr-ala-Arg-Arg-Arg-nal-Arg-Phe(3,4-difluoro)-nle-Gln)] (cyclo(WT[dA]RRR[d2Nal]R[Phe(3,4-F2)][dNle]Q)): the midpoint of inhibition, the IC50, lay at 64 nM and the “increase in Ras binding affinity upon residue substitution” value came to 2 fold.

By IC50 is commonly meant the concentration at which inhibition is half-maximal. Higher therefore signals lower potency.
